Data reported in US20220274967A1, “BCAT MODULATION” (Icagen, LLC, priority 2019, published 2022).
Like-named read-outs stand apart in the source and are kept apart here.

Experiments:
BCAT2 = target: T1, BCAT2 (Homo sapiens, UniProt O15382); test: BCAT2 enzyme inhibition (human); format: biochemical
T1 sequence (O15382 28-392): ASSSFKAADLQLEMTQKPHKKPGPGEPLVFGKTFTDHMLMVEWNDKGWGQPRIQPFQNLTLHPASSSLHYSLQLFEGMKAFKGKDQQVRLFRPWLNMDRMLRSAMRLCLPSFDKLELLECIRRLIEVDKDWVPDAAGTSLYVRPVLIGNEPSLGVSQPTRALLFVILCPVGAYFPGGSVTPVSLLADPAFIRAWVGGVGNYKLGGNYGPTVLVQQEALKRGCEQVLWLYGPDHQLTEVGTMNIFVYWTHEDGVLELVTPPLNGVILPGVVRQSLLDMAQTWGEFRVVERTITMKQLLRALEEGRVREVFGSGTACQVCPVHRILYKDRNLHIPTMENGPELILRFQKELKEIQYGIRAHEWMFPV
Experimental: In further embodiments, the functional modulation of BCAT2 is assayed using a cell-free assay. In various embodiments, the cell-free assay is an enzyme-coupled fluorescent assay. For example, the disclosure contemplates use of an assay that monitors the production of L-glutamate from branch-chain amino acids and α-ketoglutarate through the coupling of hBCATm activity to two additional enzymes, L-Glutamate Oxidase (L-GOx) and Horseradish Peroxidase (HRP). Specifically, L-GOx catabolizes L-glutamate to generate α-ketoglutarate and […], the latter being utilized by HRP and leading to the formation of fluorescent resorufin from the redox-sensitive dye Amplex Red. In some embodiments, the test compound is classified as a candidate compound if a decrease in L-glutamate is measured. In further embodiments, the test compound is classified as a candidate compound if a decrease in α-ketoglutarate is measured.

GM00371 cells = test: Viability assay (Cell titer glo) in the 3-HIB assay; format: cell-based, human; conditions: read-out: 3HIB INHIBITION IC50 (μM) MEAN GM00371 cells Viablility Assay
Experimental: Cell Plating: Cells (Coriell Institute GM00371 cells) were plated (96-well clear bottom sterile plate; Greiner 655098) at 10,000 cells/0.1 mL in Eagle's minimum essential medium (EMEM)/15% FBS (Gibco 16000-044) with a Combi dispenser in a cell culture hood and incubated at 37° C. and 5% CO2 overnight.
Compound Dilution: Compound were prepared as 33.3× intermediate dilution in DMSO in 96 well round polystyrene plates. For 30 μM final maximum start with 30 μL of 10 mM in DMSO. 10-12 1:3 serial dilutions were prepared from left to right (20 μL+40 μL DMSO). A 10× secondary dilution was prepare in EMEM by taking 7.5 μL 33.3× and transfer to replicate 96 well round polystyrene plates and then adding 242.5 μL EMEM A 1× final dilution in EMEM was prepared by taking 50 μL 10× dilution and transferring to replicate 96 well polypropylene assay block (Costar 3956) and adding 450 μL EMEM A control was prepared for maximal compound inhibition by taking 20 μL 10 mM Reference Compound A and adding 40 μL DMSO for a concentration of 3.3 mM To 7.5 μL of the 3.3 mM Reference Compound A solution and added 242.5 μL EMEM to make a 100 μM solution. The subsequent Reference Compound A solution was diluted with EMEM to achieve a final concentration of 10 μM. The structure of Reference Compound A is:
A control was prepared for maximal compound toxicity by taking 7.5 μL Reference Compound B and 242.5 μL EMEM to make […]. 50 μL of that 100 μM Reference Compound B solution was combined with 450 μL EMEM to achieve a concentration of 30 μM. The structure of Reference Compound B is
Compound Treatment: Media was aspirated from the cells and 100 μL of D-PBS (ThermoFisher 14190144) was added and then removed. 100 μL of diluted compound was added to the cells in the place and the cells were incubated at 37° C. and 5% CO2 for 24 hours.
Viability Assay: To the cells remaining in the plate 25 μL D-PBS and 25 μL Cell titer glo reagent (Promega G7572). The plate was placed on a shaker for 2 minutes, incubated at room temperature in the dark and then read on a Clariostar microplate reader.

Compound | IC50 (BCAT2) [nM] | IC50 (GM00371 cells; 24 hours) [µM] | IC50 (GM00371 cells; Homo sapiens, 24 h) [µM]
CNC(=O)c1ccc2c(c1)nc(-c1c(F)cccc1F)n2[C@H]1CCC[C@@H](NC(=O)c2ccc(Br)s2)C1 [Compound 215] | < 100 | 0.1 to 0.5 | 
CNC(=O)c1ccc2c(c1)nc(-c1ccccn1)n2[C@H]1CCC[C@@H](NC(=O)c2ccc(C(C)C)s2)C1 [Compound 146] | > 1000 |  | ≥ 1
CNC(=O)c1ccc2c(C3CCCC(NC(=O)c4cccs4)C3)c(-c3ccccc3)[nH]c2c1 (stereo not drawn) [Compound 290] | > 1000 |  | ≥ 1
CNC(=O)c1cc2nc(-c3ccccc3F)n([C@H]3CCC[C@@H](NC(=O)c4ccc(Br)s4)C3)c2cc1OC [Compound 213] | < 100 |  | < 0.1
CNC(=O)c1ccc2c(c1)nc(-c1ccccn1)n2[C@@H]1CCC[C@H](NC(=O)c2ccc(C(C)=O)s2)C1 [Compound 121] | > 1000 |  | ≥ 1
CNC(=O)c1ccc2c(c1)nc(-c1ccccc1C(N)=O)n2[C@H]1CCC[C@@H](NC(=O)c2ccc(C#N)s2)C1 [Compound 142] | < 100 |  | ≥ 1
C=CC(=O)N[C@H]1CCC[C@@H](n2c(-c3ccccn3)nc3cc(C(=O)NC)ccc32)C1 [Compound 106] | > 1000 |  | ≥ 1
CNC(=O)c1ccc2c(c1)nc(-c1cccc(F)n1)n2[C@H]1CCC[C@@H](NC(=O)c2ccc(Br)s2)C1 [Compound 216] | < 100 |  | ≥ 1
CNC(=O)c1cc2nc(-c3cccc(F)c3O)n([C@H]3CCC[C@@H](NC(=O)c4ccc(Br)s4)C3)c2cc1F [Compound 209] | < 100 |  | 0.1 to 0.5
C=CC(=O)Nc1ccc(C(=O)N[C@H]2CCC[C@@H](n3c(-c4ccccn4)nc4cc(C(=O)NC)ccc43)C2)s1 [Compound 110] | > 1000 |  | ≥ 1
O=C(N[C@H]1CCC[C@@H](n2c(-c3ccccn3)nc3cc(CO)ccc32)C1)c1cccs1 [Compound 118] | > 1000 |  | ≥ 1
CNC(=O)c1ccc2c(c1)nc(-c1ccccn1)n2[C@@H]1CCC[C@H](NC(=O)c2coc(Br)n2)C1 [Compound 120] | > 1000 |  | ≥ 1
CNC(=O)c1cc2nc(-c3sccc3C)n([C@H]3CCC[C@@H](NC(=O)c4ccc(Br)s4)C3)c2cc1F [Compound 210] | < 100 |  | ≥ 1
CNC(=O)c1ccc2c(c1)nc(-c1cccc(C#N)c1)n2[C@H]1CCC[C@@H](NC(=O)c2ccc(Br)s2)C1 [Compound 165] | > 1000 |  | 
